Laboratory results taken from publication PMC3756062, “Identification of Putative Steroid Receptor Antagonists in Bottled Water: Combining Bioassays and High-Resolution Mass Spectrometry” (PLoS ONE, 2013).

Experiments:
[1] = target: T1, human androgen receptor (Homo sapiens, UniProt P10275); experiment: Yeast Antiandrogen Screen (YAAS), reporter gene assay; type: cell-based; details: coincubated with 2.5 nM testosterone; for IC50: authentic standards 300 nM to 1 mM in ethanol, 24 h, three experiments, four-parameter logistic function, read-out: IC50, antiandrogenic in the YAAS
T1 construct: expressed in transfected cells
T1 sequence (P10275 1-920): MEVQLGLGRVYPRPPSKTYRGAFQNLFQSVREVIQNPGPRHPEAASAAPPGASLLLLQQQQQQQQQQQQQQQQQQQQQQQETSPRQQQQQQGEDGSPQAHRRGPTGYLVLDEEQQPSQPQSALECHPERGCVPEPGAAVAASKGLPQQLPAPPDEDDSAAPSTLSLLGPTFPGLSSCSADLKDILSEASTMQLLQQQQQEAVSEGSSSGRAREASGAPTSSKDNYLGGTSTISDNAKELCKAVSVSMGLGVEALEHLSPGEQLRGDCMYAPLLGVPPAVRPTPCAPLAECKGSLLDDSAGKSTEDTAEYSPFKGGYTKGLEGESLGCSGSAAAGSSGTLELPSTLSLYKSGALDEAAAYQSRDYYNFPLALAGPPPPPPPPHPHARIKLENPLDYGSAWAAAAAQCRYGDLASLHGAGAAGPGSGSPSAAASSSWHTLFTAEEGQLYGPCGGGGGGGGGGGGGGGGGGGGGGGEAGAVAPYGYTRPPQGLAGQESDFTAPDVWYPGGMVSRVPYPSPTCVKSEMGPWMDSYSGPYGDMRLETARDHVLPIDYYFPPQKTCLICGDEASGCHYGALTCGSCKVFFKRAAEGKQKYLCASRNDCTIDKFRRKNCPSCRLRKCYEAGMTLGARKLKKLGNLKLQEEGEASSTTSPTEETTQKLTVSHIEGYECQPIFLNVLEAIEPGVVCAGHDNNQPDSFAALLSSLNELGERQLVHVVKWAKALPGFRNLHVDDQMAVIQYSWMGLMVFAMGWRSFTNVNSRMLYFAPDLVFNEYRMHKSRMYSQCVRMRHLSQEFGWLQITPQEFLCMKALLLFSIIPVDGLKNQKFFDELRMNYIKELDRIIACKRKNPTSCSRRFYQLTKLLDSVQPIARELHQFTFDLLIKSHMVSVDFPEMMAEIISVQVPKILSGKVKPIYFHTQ
Method: (§1) The antiestrogenic and antiandrogenic activity of bottled water extracts was evaluated in reporter gene assays for human estrogen receptor alpha (Yeast Antiestrogen Screen, YAES) and human androgen receptor (Yeast Antiandrogen Screen, YAAS). To detect antagonists, Yeast Estrogen Screen and Yeast Androgen Screen were modified to analyze samples in the presence of the endogenous ligand of each receptor (17β-estradiol, testosterone). Receptor antagonists present in the sample cause a displacement of the endogenous ligand resulting in a decreased reporter gene signal.
(§2) The general assay procedures have been described previously, [24]. Briefly, SPE extracts were diluted 480 fold in assay medium and coincubated with 30 pM 17β-estradiol (YAES) or 2.5 nM testosterone (YAAS) dissolved in ethanol. Negative controls, solvent controls (ethanol and DMSO) with and without endogenous ligand, and positive controls (ligand coincubated with a known receptor antagonist, YAES: 80 µM hydroxytamoxifen, YAAS: 50 µM flutamide) were included in each experiment. The maximum solvent concentration was 0.4% v/v in all cases. Samples were analyzed in eight replicates, controls in 8–48 replicates. After 24 hours incubation at 30°C turbidity was read to assess cytotoxicity and β-galactosidase activity was determined. Samples from three extractions were tested in three independent YAES and YAAS experiments each.
(§3) Inhibition data is reported as means of three SPE extracts per sample analyzed in three experiments (with eight replicates each) resulting in a sample size of 63–72. The reported antagonistic activity corresponds to a sample volume equivalent to 3.75 mL bottled water.
Chemicals with best matching fragmentation and plausible structure (DEHM, DOM, DEHF, DOF) were purchased as authentic standards. Their antiestrogenic and antiandrogenic activity was evaluated in the bioassays (three experiments) as described above in concentrations ranging from 300 nM to 1 mM (in ethanol).

[2] = target: T2, human estrogen receptor alpha (Homo sapiens, UniProt P03372); experiment: Yeast Antiestrogen Screen (YAES), reporter gene assay; type: cell-based; details: coincubated with 30 pM 17β-estradiol; for IC50: authentic standards 300 nM to 1 mM in ethanol, 24 h, three experiments, four-parameter logistic function, read-out: IC50, antiestrogenic in the YAES
T2 construct: expressed in transfected cells
T2 sequence (P03372 1-595): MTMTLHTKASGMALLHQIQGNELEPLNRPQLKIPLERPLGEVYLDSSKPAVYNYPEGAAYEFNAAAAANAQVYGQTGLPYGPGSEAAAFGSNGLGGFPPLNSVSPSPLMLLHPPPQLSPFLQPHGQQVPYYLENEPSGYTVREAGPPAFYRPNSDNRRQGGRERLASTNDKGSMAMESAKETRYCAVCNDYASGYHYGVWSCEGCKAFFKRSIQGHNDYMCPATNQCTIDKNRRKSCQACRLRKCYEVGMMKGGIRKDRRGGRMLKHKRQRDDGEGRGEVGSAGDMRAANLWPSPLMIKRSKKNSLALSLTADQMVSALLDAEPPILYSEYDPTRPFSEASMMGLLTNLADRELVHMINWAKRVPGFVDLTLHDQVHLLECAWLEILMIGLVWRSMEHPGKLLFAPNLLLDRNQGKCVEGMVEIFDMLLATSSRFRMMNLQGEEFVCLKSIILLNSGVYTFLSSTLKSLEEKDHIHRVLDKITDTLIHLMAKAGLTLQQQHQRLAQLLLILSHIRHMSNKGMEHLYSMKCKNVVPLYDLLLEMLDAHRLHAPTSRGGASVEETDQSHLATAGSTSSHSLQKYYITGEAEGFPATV
Method: as §1, §2, §3
Their antiestrogenic and antiandrogenic activity was evaluated in the bioassays (three experiments) as described above in concentrations ranging from 300 nM to 1 mM (in ethanol).

| antiandrogenic activity in the YAAS (result in words) [1] | IC50 [1] | IC50 [2] | antiestrogenic activity in the YAES (result in words) [2] | Structure (SMILES) |
| --- | --- | --- | --- | --- |
| inactive |  |  |  | CCCCC(CC)COC(=O)/C=C/C(=O)OCC(CC)CCCC (stereo not shown) [DEHF, 2-Butenedioic acid (2E)-, 1,4-bis(2-ethylhexyl) ester] |
| partially | 15.8 µM | 35.4 µM | partially | CCCCCCCCOC(=O)/C=C/C(=O)OCCCCCCCC [DOF, 2-Butenedioic acid (2E)-, 1,4-dioctyl ester] |
| at high concentrations | 245 µM | 107 µM | at high concentrations | CCCCCCCCOC(=O)/C=C\C(=O)OCCCCCCCC [DOM, 2-Butenedioic acid (2Z)-, 1,4-dioctyl ester] |
| inactive |  |  |  | CCCCC(CC)COC(=O)/C=C\C(=O)OCC(CC)CCCC (stereo not shown) [DEHM, 2-Butenedioic acid (2Z)-, 1,4-bis(2-ethylhexyl) ester] |
